Literature values as cited in US9918970B2, “Pharmaceutical composition comprising solifenacin” (Astellas Pharma Inc., priority 2010, dated 2018).

Target: muscarinic M3 receptor (Homo sapiens, UniProt P20309)
Sequence (P20309 whole entry): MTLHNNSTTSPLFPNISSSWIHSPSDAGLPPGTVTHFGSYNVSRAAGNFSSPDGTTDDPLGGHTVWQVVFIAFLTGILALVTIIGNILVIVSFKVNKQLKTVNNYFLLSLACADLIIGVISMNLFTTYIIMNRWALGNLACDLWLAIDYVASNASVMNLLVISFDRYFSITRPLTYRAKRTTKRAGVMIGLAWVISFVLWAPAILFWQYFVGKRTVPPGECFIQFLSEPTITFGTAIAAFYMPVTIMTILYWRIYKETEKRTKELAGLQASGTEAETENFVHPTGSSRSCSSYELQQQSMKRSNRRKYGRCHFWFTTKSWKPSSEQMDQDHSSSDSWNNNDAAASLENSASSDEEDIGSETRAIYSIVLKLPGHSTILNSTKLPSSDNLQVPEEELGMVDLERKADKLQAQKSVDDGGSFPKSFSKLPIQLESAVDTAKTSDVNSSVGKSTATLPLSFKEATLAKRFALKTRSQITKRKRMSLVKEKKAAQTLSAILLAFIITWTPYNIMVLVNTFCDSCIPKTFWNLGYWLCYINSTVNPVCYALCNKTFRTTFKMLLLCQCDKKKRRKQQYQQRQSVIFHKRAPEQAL

selectivity for the M3 receptor as compared with the M2 receptor (in words) (M3 in smooth muscle, gland tissues, M2 in heart): higher selectivity
Structure (SMILES): O=C(O[C@H]1CN2CCC1CC2)N1CCc2ccccc2[C@@H]1c1ccccc1 [solifenacin, (R)-quinuclidin-3-yl (S)-1-phenyl-1,2,3,4-tetrahydroisoquinoline-2-carboxylate]
antagonistic activity against muscarinic M3 receptor (in words): excellent selective antagonistic activity
